{"source": "ChEMBL document CHEMBL5331083", "about": "“Targeting ferroptosis: Paving new roads for drug design and discovery” (Eur J Med Chem, 2023)", "assay_type_in_all_cases": "functional, cell-based", "key": {"[1]": {"assay": "Inhibition of ferroptosis in tamoxifen induced Gpx4-/- mouse MEF cells"}, "[2]": {"assay": "Inhibition of erastin-induced cell death in human HT-1080 cells"}, "MCF7": {"test_system": "MCF7", "assay": "Cytotoxicity against human MCF7 cells incubated for 48 hrs by MTT assay", "conditions": "MCF7, 48 h"}, "HT-22 [3]": {"test_system": "HT-22", "assay": "Inhibition of erastin-induced ferroptosis in mouse HT-22 cells incubated for 24 hrs by MTT assay", "conditions": "HT-22, 24 h"}, "HT-22 [4]": {"test_system": "HT-22", "assay": "Inhibition of RSL3-induced ferroptosis in mouse HT-22 cells incubated for 24 hrs by MTT assay", "conditions": "HT-22, 24 h"}}}
{"smiles": "Clc1cccc(CNC2=Nc3ccccc3NC23CCNCC3)c1", "values": [{"measurement": "IC50", "setting": "[1]", "value": 0.022, "unit": "µM"}]}
{"smiles": "CCOC(=O)c1ccc(NC2CCCCC2)c(N)c1", "values": [{"measurement": "IC50", "setting": "[2]", "value": 0.095, "unit": "µM"}]}
{"smiles": "CCOC(=O)c1ccc(NC2CCCCC2)c(NCc2ccccc2)c1", "values": [{"measurement": "IC50", "setting": "[2]", "value": 0.006, "unit": "µM"}]}
{"smiles": "COc1cc(O)c2c(=O)cc(-c3ccc(O)c(-c4c(O)cc5oc(-c6ccc(O)cc6)cc(=O)c5c4OC)c3)oc2c1", "values": [{"measurement": "IC50", "setting": "MCF7", "value": 11.9, "unit": "µM"}]}
{"smiles": "CCO[C@@H]1C[C@@H]2C[C@@H]([C@@]3(C)[C@H](C)C[C@H](OC(C)=O)[C@]4(COC(C)=O)[C@@H]3CC[C@H](OC(=O)C(C)CC)[C@]43CO3)O[C@@H]2O1", "note": "(stereo partly specified)", "values": [{"measurement": "EC50", "setting": "HT-22 [3]", "value": 4.1, "unit": "µM"}, {"measurement": "EC50", "setting": "HT-22 [4]", "value": 3.6, "unit": "µM"}]}
